Experimental data reported in patent US20170119693A1, “Methods of Improving Glucose Tolerance, Hair Regrowth, and Bio-Availability” (priority 2015, published 2017).

What was measured:
Format in all cases: in vivo
[1] = test system: female Albino Wistar rats; experiment: hair regrowth assay; details: 25, 50, 75 mg/kg body wt daily for four months; dorsal hair plucked 1.5 cm x 1.5 cm, scored two weeks later from digital photographs
Experimental: (§1) To determine the efficacy of resveratrol-arginine conjugate, six month old female Albino Wistar rats were divided into seven groups (six rats per group) and given the following daily treatment for four months: • Group 1: Control; • Group 2: 25 mg ResArgin/kg body wt; • Group 3: 50 mg ResArgin/kg body wt; • Group 4: 75 mg ResArgin/kg body wt; • Group 5: 25 mg Resveratrol/kg body wt; • Group 6: 50 mg Resveratrol/kg body wt;
In another embodiment, hair regrowth assay was done and quantified. Compared to the Control group, hair regrowth was improved in the ResArgin and resveratrol groups over the experimental period.
In the hair regrowth assay, dorsal hair was removed by plucking from a square of approximately 1.5 cm×1.5 cm. Hair growth and re-growth was scored two weeks later on the basis of digital photographs.

[2] = test system: female Albino Wistar rats; experiment: four month daily treatment study, investigated age related conditions overall; details: summary of the study; effects of ResArgin being more significant than those of resveratrol
Experimental: as §1
Based on the results of the study performed, the effective dosage of resveratrol arginine conjugate is 10 to 250 mg per kilogram of body weight for a period of at least two weeks.

[3] = test system: female Albino Wistar rats; experiment: glucose tolerance test; details: 25, 50, 75 mg/kg body wt daily for four months; 6 h fast, 2 g/kg intraperitoneally, tail vein blood 0-120 min; p<0.01 ResArgin, p<0.05 resveratrol
Experimental: as §1
Group 7: 75 mg Resveratrol/kg body wt. In one embodiment, glucose tolerance levels were tested via a glucose tolerance test and analysis was performed. Compared to the Control group, glucose tolerance was improved in the ResArgin and resveratrol groups (p<0.01 and p<0.05 respectively) over the experimental period.
In one embodiment, glucose tolerance tests were performed after having the rats fast for 6 hours and injecting 2 g/kg body weight intraperitoneally. Blood was then collected from the tail vein at 0, 15, 30, 60 and 120 minutes after injection.

## Oc1ccc(C=Cc2cc(O)cc(O)c2)cc1 [resveratrol]
[1]
  hair regrowth compared to the Control group: improved
[2]
  effect on the investigated age related conditions: significantly improved
[3]
  glucose tolerance compared to the Control group: improved
